Where two headings read alike, the source gives them in different places.
Key:
C1s [1] = molecular target: T1, C1s (Homo sapiens, UniProt P09871); test: C1s focused library screening (fluorescent substrate Boc-Leu-Gly-Arg-AMC, 10 µM); type: biochemical
T1 construct: Recombinant C1s and C1r fragments (CCP1-CCP2-SP, the γB catalytic region); made in house
T1 sequence (P09871 438-688 limits assumed): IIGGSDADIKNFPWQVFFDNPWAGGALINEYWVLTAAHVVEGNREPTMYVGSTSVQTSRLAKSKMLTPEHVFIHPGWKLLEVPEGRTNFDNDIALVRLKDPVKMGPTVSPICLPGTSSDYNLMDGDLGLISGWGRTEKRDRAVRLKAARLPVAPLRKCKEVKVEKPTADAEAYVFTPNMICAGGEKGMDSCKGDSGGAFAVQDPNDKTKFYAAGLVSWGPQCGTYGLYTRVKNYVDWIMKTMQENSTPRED
Text: (§1) Recombinant C1s and C1r fragments (CCP1-CCP2-SP, the γB catalytic region) containing the serine protease domain were expressed in E. Coli BL21(DE3)pLysS host strain (transformed with pET-17b vector) in form of inclusion bodies; proteins were isolated, renatured and purified as published earlier. Recombinant C1s, isolated in intact proenzyme form, was activated by limited proteolysis using the recombinant, autoactivated C1r fragment. Activated C1s and C1r were separated using Q Sepharose HP (Amersham Biosciences, Little Chalfont, UK) anion exchange chromatography.
Two end-point assays have been developed for C1s inhibition assays: For screening assays a specific, fluorescent amide substrate Boc-Leu-Gly-Arg-AMC (Sigma, St. Louis, MO, USA), representing the cleavage site sequence of C2 was used with relatively high enzyme concentration (0.2 µM). Assay conditions: 20 mM HEPES (pH 7.4), 200 mM NaCl, 0.05% Tween20, 1% DMSO; 384 microplate format; 10 µL enzyme + 10 µL inhibitor compounds (final concentration: 10 µM); incubation time and temperature: 10 min, RT; then 20 µL substrate solution was added (1 mM final concentration); incubated (45 min, 30 °C) and the fluorescence have been read (355/460 nm; Wallac 1420 Victor2 microplate reader, Perkin Elmer, Waltham, MA, USA).

C1s [2] = molecular target: T1, C1s; test: C1s inhibition IC50 assay (thioester substrate Z-Lys-SBzl with DTNB, photometric); type: biochemical; conditions: validation with FUT175; read-out: IC50 C1s (assay validation)
Text: as §1
40 µL enzyme + 10 µL inhibitor compounds were incubated (10 min, RT), and 50 µL substrate solution (1 mM final concentration) was added; incubated for 45 min and finally absorbance was read (405 nm) with a Perkin Elmer Wallac 1420 Victor2 microplate reader.

C1s [3] = molecular target: T1, C1s; conditions: ref [49]; read-out: IC50 C1s, reported value; cited from earlier work
C1s [4] = conditions: ref [47]; cited from earlier work

For O=C(c1ccc(C(=O)n2nnc3ccccc32)cc1)n1nnc2ccccc21 [1-[4-(1,2,3-benzotriazole-1-carbonyl)benzoyl]-1,2,3-benzotriazole], the “C1s inhibitory activity (in words)” value (C1s [1]) was “inactive”.
In the case of N=C(N)c1ccc2cc(OC(=O)c3ccc(N=C(N)N)cc3)ccc2c1 [FUT175, nafamostat, reference compound], the IC50 (C1s [2]) is given as 0.002 µM and the IC50 (C1s [3]) is given as 0.32 µM.
In the case of O=c1oc(-c2ccccc2I)nc2ccccc12 [CID296008, 2-(2′-iodophenyl)-3,1-benzoxazin-4-one], the IC50 (C1s [4]) is listed as 1.25 µM.

Reference: PMC6832932, “Design and Selection of Novel C1s Inhibitors by In Silico and In Vitro Approaches” (Molecules, 2019)
